Assay results from patent US20220348590A1, “CYCLOOXYGENASE-2 INHIBITORS AND USES THEREOF” (The Board Institute, Inc., priority 2019, published 2022).
Like-named read-outs stand apart in the source and are kept apart here.

Tests used:
[1] = Mouse Plasma Protein Stability (% Remaining); format: in vitro ADME; conditions: average
[2] = human plasma protein binding (PPB) assay; format: in vitro ADME; conditions: average, read-out: Human Plasma Protein Binding % Bound Avg (converted)
Description: We have adapted a previously reported cyclooxygenase enzymatic assay utilizing LCMS quantification of PGE2 as the product of COX-1 and COX2 catalyzed conversion of arachidonic acid to evaluate the binding properties of newly synthesized ligands [Cao, 2011]. These optimized and miniaturized (384-well plates) LCMS-based COX-1 and COX2 enzymatic assays enabled us to quickly evaluate newly synthesized ligands for COX2 binding affinity and selectivity vs COX-1. Using a shorter ligand-enzyme incubation time in the LCMS assay (2 minutes vs 10 minutes) also permitted us to prioritize ligands with faster binding kinetics. Considering the relatively slow on-rate kinetics of known coxibs, due to their 3-step binding mechanism [Marnett, 2009], we believe that optimizing this critical parameter will be key to the successful development of a COX2 PET tracer. Using these enzymatic assays, we have evaluated>200 newly synthesized ligands against COX2 and >20 ligands against COX-1. Another critical property necessary for a good PET radiotracer is to have low non-specific binding (NSB) to increase the free fraction and maximize the signal to noise ratio. This property can be evaluated using in-vitro protein binding assays, and we have now evaluated>50 newly synthesized ligands in mouse, rat and human plasma protein binding (PPB) assays as well as >15 ligands in a mouse brain protein binding (BPB) assay.

ovine COX-1 (oCOX-1) = biological target: T1, ovine COX-1 (oCOX-1) (Ovis aries, UniProt P05979); assay: LCMS-based COX-1 enzymatic inhibition assay (PGE2 quantification); format: biochemical
T1 construct: purchased Cayman Chemicals (Ann Arbor, Mich.)
T1 sequence (P05979 25-600): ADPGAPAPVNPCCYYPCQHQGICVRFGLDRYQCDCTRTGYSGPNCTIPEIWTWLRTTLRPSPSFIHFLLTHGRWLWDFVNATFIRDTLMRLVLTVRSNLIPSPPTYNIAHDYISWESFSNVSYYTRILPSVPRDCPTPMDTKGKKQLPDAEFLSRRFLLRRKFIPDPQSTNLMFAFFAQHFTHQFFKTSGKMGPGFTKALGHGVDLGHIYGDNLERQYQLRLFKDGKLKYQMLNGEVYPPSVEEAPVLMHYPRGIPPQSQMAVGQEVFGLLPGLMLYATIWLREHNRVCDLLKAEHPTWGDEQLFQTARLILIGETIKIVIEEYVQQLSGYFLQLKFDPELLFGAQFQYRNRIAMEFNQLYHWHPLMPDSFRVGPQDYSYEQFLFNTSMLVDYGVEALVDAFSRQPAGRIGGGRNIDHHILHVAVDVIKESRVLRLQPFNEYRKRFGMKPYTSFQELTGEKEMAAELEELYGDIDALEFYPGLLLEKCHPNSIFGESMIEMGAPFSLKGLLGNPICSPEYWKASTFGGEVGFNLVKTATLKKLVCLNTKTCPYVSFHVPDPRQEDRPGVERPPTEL
Method in brief: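 Ovine COX-1 (0.1 μg) or human recombinant COX2 (0.2 μg) in 100 mM Tris.HCl pH 8.0 with hematin and epinephrine, preincubated with inhibitor 10 min at 37 °C. Reaction with 5 μM arachidonic acid stopped after 2 min with HCl; PGE2 quantified by LC-MS-MS. IC50 from 12 concentrations in triplicate.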

[3] = rat plasma protein binding (PPB) assay; format: in vitro ADME; conditions: average, read-out: Rat Plasma Protein Binding % Bound Avg (converted)
Method in brief: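 In vitro protein binding; fu determined. Matrices: mouse/rat/human plasma (PPB), mouse brain (BPB). Used to gauge NSB.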

[4] = Human Plasma Protein Stability (% Remaining); format: in vitro ADME; conditions: average
[5] = Human Microsome Stability; format: in vitro ADME; conditions: human microsomes
[6] = 10 minutes, readout pge2 area (counts), average LLE
[7] = 10 minutes, readout pge2/pge2d4 area ratio, average LLE
[8] = 10 minutes, readout pge2/pge2d4 area ratio, average, read-out: COX1 10 minutes pge2/pge2d4 area ratio Avg. IC50
[9] = 10 minutes, readout pge2 area (counts), average, read-out: COX1 10 minutes pge2 area (counts) Avg. IC50

Row | Structure (SMILES) | Mouse Plasma Protein Stability % Remaining Avg [1] | fraction unbound [2] | COX1 10 minutes pge2 area (counts) Avg. LLE (ovine COX-1 (oCOX-1); [6]) | fraction unbound [3] | Human Plasma Protein Stability % Remaining Avg [4] | COX1 10 minutes pge2/pge2d4 area ratio Avg. LLE (ovine COX-1 (oCOX-1); [7]) | IC50 (ovine COX-1 (oCOX-1); [8]) | IC50 (ovine COX-1 (oCOX-1); [9]) | Human Microsome Stability % Remaining Avg [5] | COX1 10 minutes pge2/pge2d4 area ratio Avg. LLE (ovine COX-1 (oCOX-1); 10 minutes, pge2/pge2d4 area ratio, head of this section not shown, inferred) | COX1 10 minutes pge2 area (counts) Avg. LLE (ovine COX-1 (oCOX-1); 10 minutes, pge2 area (counts), head of this section not shown, inferred) | IC50 (ovine COX-1 (oCOX-1); 10 minutes, pge2 area (counts), head of this section not shown, inferred, read-out: COX1 10 minutes pge2 area (counts) Avg. IC50) | IC50 (ovine COX-1 (oCOX-1))
1 | COc1ccc(NCc2cccs2)nc1-c1ccc(S(C)(=O)=O)cc1 [Compound 17] | 102% | 0.022 | 0.884 | 0.047 | 95% |  |  |  |  |  |  |  | 
2 | CS(=O)(=O)c1ccc(-c2cc(F)cc(NCc3ccco3)n2)cc1 [Compound 14] | 99% | 0.02 | 1.516 | 0.024 | 118% | 1.4251 | 40.3 µM | 32.7 µM | 21% |  |  |  | 
3 | CS(=O)(=O)c1ccc(-c2cccc(NCc3cccs3)n2)cc1 [Compound 24] | 114.1% | 0.019 |  | 0.025 | 100% |  | 34.7 µM | 33.4 µM | 18% |  |  |  | 
4 | CS(=O)(=O)c1ccc(-c2cccc(NCc3ccco3)n2)cc1 [Compound 36] | 106% | 0.091 |  | 0.087 | 100% |  | 36.4 µM | 29.7 µM | 17% |  |  |  | 
5 | CS(=O)(=O)c1ccc(-c2ccc(F)c(NCc3ccco3)n2)cc1 [Compound 15] |  | 0.022 | 1.404 | 0.02 | 108% | 1.314 |  | 34.4 µM | 45.5% |  |  |  | 52 µM
6 | CS(=O)(=O)c1ccc(-c2nc(NCc3cccs3)cc3ccoc23)cc1 [Compound 2] | 108% | 0.003 | −0.02512 | 0.009 | 99% | −0.046 |  | 49.6 µM | 27% |  |  |  | 52 µM
7 | COc1cc(NCc2cccs2)nc(-c2ccc(S(C)(=O)=O)cc2)c1 [Compound 50] | 98.9% |  | 0.9785 |  |  | 1.091 | 32.3 µM | 42 µM |  |  |  |  | 
8 | COc1ncc(NCc2ccoc2)nc1-c1ccc(S(C)(=O)=O)cc1 [Compound 44] | 105.7% |  | 2.41 | 0.044 |  | 2.274 |  | 38.1 µM |  |  |  |  | 52 µM
9 | COc1ncc(NCc2cccs2)nc1-c1ccc(S(C)(=O)=O)cc1 [Compound 29] | 93.2% | 0.016 | 3.31 | 0.019 | 93.9% | 1.794 |  | 0.0484 µM | 24% |  |  |  | 52 µM
10 | CS(=O)(=O)c1ccc(-c2cccc(NCc3ccoc3)n2)cc1 [Compound 47, N-(furan-3-ylmethyl)-6-(4-(methylsulfonyl)phenyl)pyridin-2-amine] | 107.5% | 0.071 |  | 0.068 | 102.5% | 1.461 | 38.8 µM |  | 16% |  |  |  | 
11 | CS(=O)(=O)c1ccc(-c2cccc(OCc3ccoc3)n2)cc1 [Compound 16] | 102% | 0.049 | 1.072 | 0.031 | 121% | 1.139 | 39.9 µM | 46.5 µM | 24% |  |  |  | 
12 | CS(=O)(=O)c1ccc(-c2cc(F)cc(NCc3ccoc3)n2)cc1 [Compound 34] |  | 0.027 | 1.484 | 0.025 | 100% | 1.4613 | 30.1 µM | 28.7 µM | 48% |  |  |  | 
13 | CS(=O)(=O)c1ccc(-c2ccc(F)c(NCc3ccoc3)n2)cc1 [Compound 33] |  | 0.029 | 1.362 | 0.025 | 100% | 1.418 | 33.3 µM | 37.9 µM | 40% |  |  |  | 

More lines, in order of falling IC50 (ovine COX-1 (oCOX-1); [8]), values ahead:

Row | Mouse Plasma Protein Stability % Remaining Avg [1] | fraction unbound [2] | COX1 10 minutes pge2 area (counts) Avg. LLE (ovine COX-1 (oCOX-1); [6]) | fraction unbound [3] | Human Plasma Protein Stability % Remaining Avg [4] | COX1 10 minutes pge2/pge2d4 area ratio Avg. LLE (ovine COX-1 (oCOX-1); [7]) | IC50 (ovine COX-1 (oCOX-1); [8]) | IC50 (ovine COX-1 (oCOX-1); [9]) | Human Microsome Stability % Remaining Avg [5] | COX1 10 minutes pge2/pge2d4 area ratio Avg. LLE (ovine COX-1 (oCOX-1); 10 minutes, pge2/pge2d4 area ratio, head of this section not shown, inferred) | COX1 10 minutes pge2 area (counts) Avg. LLE (ovine COX-1 (oCOX-1); 10 minutes, pge2 area (counts), head of this section not shown, inferred) | IC50 (ovine COX-1 (oCOX-1); 10 minutes, pge2 area (counts), head of this section not shown, inferred, read-out: COX1 10 minutes pge2 area (counts) Avg. IC50) | Structure (SMILES) | IC50 (ovine COX-1 (oCOX-1))
14 |  | 0.026 | 1.134 | 0.042 | 99% | 1.391 | 28.7 µM |  | 36% |  |  |  | Cc1occc1CNc1cccc(-c2ccc(S(C)(=O)=O)cc2)n1 [Compound 21] | 
15 | 99.2% | 0.024 | 0.724 | 0.052 | 97% | 1.089 | 22.4 µM |  | 19% |  |  |  | CS(=O)(=O)c1ccc(-c2cccc(/C=C\c3ccoc3)n2)cc1 [Compound 35, 2-[(Z)-2-(furan-3-yl)ethenyl]-6-(4-methanesulfonylphenyl)pyr] | 
16 | 119.5% | 0.002 | 1.136 | 0.006 | 94% | 1.251 | 11.5 µM | 13.8 µM | 38% |  |  |  | CS(=O)(=O)c1ccc(-c2cccc(OCc3cccs3)n2)cc1 [Compound 1, 2-(4-methanesulfonylphenyl)-6-[(thiophen-2-yl)methoxy]pyridine] | 
17 | 92.8% | 0.015 | 2.539 | 0.015 | 92.4% | 2.582 | 10.4 µM | 10.9 µM |  |  |  |  | CS(=O)(=O)c1ccc(-c2cncc(OCc3cccs3)n2)cc1 [Compound 19] | 
18 |  |  |  |  |  |  | 9.89 µM |  | 23.8% | 2.943 | 2.879 | 10.7 µM | CS(=O)(=O)c1ccc(-c2cncc(NCc3cccs3)n2)cc1 [Compound 98] | 
19 |  | 0.028 | 3.085 | 0.046 | 97% | 3.122 | 0.323 µM | 0.417 µM | 11% |  |  |  | CS(=O)(=O)c1ccc(-c2cccc(NCc3ccc(F)o3)n2)cc1 [Compound 23] | 
